In patent US10538555B2, “Macrocyclic inhibitors of the PD-1/PD-L1 and CD80(B7-1)/PD-L1 protein/protein interactions” (BRISTOL-MYERS SQUIBB COMPANY, priority 2014, dated 2020) one finds IC50 data, which are given here for 15 molecules.

*1 amine or outer side, *2 acyl side, *3 side chain or, on linkers, in order; H or OH if unused. Where a SMILES comes first, the peptide text is derived from it. Bridges are numbered along the chain shown (N, C = ends). [ ]: non-standard residue; d: D form. ξ: configuration not given here. Trp(1-CH2COOH) = N[C@@H](Cc1cn(CC(=O)O)c2ccccc12)C(=O)O; Phe(3,4,5-F3) = N[C@@H](Cc1cc(F)c(F)c(F)c1)C(=O)O; Phe(3,4-F2) = N[C@@H](Cc1ccc(F)c(F)c1)C(=O)O; NMePhe(4-F) = CN[C@@H](Cc1ccc(F)cc1)C(=O)O; Phe(4-F) = N[C@@H](Cc1ccc(F)cc1)C(=O)O; d(cisHyp) = O=C(O)[C@H]1C[C@@H](O)CN1; Bta = N[C@@H](Cc1csc2ccccc12)C(=O)O; Hyp = O=C(O)[C@@H]1C[C@@H](O)CN1; NMeF = CN[C@@H](Cc1ccccc1)C(=O)O; Pip(4-aza) = O=C(O)[C@@H]1CNCCN1; X1 = O=C([C@H]1COCCN1[*:1])[*:2]; dPip(4-aza) = O=C(O)[C@H]1CNCCN1; 4Pal = N[C@@H](Cc1ccncc1)C(=O)O; dHyp = O=C(O)[C@H]1C[C@H](O)CN1; NMeNle = CCCC[C@H](NC)C(=O)O; dNle = CCCC[C@@H](N)C(=O)O; Pip = O=C(O)[C@@H]1CCCCN1; dPip = O=C(O)[C@H]1CCCCN1; hSer = N[C@@H](CCO)C(=O)O; NMeA = CN[C@@H](C)C(=O)O; Orn = NCCC[C@H](N)C(=O)O; dNMeA = CN[C@H](C)C(=O)O; Dab = NCC[C@H](N)C(=O)O; ξC = NC(CS)C(=O)O; Sar = CNCC(=O)O

T1 sequence (Q9NZQ7 with tags, fused parts or gaps): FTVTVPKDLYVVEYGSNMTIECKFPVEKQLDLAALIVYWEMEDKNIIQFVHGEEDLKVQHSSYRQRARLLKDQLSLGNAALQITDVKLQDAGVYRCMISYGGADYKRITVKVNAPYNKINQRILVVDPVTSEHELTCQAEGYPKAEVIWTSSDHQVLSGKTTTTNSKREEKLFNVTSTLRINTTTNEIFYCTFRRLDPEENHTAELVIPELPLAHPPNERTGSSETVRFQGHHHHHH

This test addresses T1, Human PD-L1/PD-1 (Homo sapiens, UniProt Q9NZQ7).
T1 construct: TVMV protease cleavage site (C); made in house; host or cells: HEK293T cells
Description: HTRF Human PD-L1/PD-1 binding assay (PD-1-Ig/PD-L1-His). As to conditions: PD-L1-His 10 nM, PD-1-Ig 20 nM; class symbol; read-out: HTRF Human PD-L1/PD-1 Binding Assay IC50 Range. The method in brief: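 HTRF competition using HEK293T-expressed human PD-1(25-167)-Ig at 20 nM and PD-L1(18-239)-His at 10 nM, compound incubated first with PD-L1 for 15 min, then with PD-1 for 15 min. Signal read as 665/620 nm ratio 30 min after adding Eu anti-Ig and APC anti-His antibodies.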
Consider `CCCC[C@H]1C(=O)N2C[C@H](O)C[C@@H]2C(=O)N[C@@H](CC(=O)O)C(=O)N[C@@H](C(C)C)C(=O)N(C)[C@@H](Cc2ccccc2)C(=O)N[C@@H](CCC(=O)O)C(=O)N2CCNC[C@@H]2C(=O)N[C@@H](Cc2c[nH]c3ccccc23)C(=O)N[C@@H](Cc2ccc(O)cc2)C(=O)N[C@@H](CCCN)C(=O)N[C@H](C(=O)NCC(N)=O)CSCC(=O)N[C@@H](Cc2cc(F)c(F)c(F)c2)C(=O)N(C)[C@@H](Cc2ccccc2)C(=O)N1C` [Example 10166] ({CH2CO}-[Phe(3,4,5-F3)][NMeF][NMeNle][d(cisHyp)]DV[NMeF]E[dPip(4-aza)]WY[Orn]CG-NH2; thioether N-13), for which the IC50 lay in the range of 1 to 9.9 nM. The figure for `CCCC[C@H]1C(=O)N(C)[C@@H](CCCC)C(=O)N[C@@H](CC(=O)O)C(=O)N[C@H](C(=O)NCC(N)=O)CSCC(=O)N[C@@H](Cc2ccc(O)cc2)C(=O)N2CCCC[C@H]2C(=O)N[C@@H](CC(=O)O)C(=O)N2CCC[C@H]2C(=O)N[C@@H](Cc2cnc[nH]2)C(=O)N[C@@H](CCCCN)C(=O)N2C[C@H](O)C[C@H]2C(=O)N[C@@H](Cc2c[nH]c3ccccc23)C(=O)N[C@@H](CCCCN)C(=O)N[C@@H](Cc2c[nH]c3ccccc23)C(=O)N1C` [Example 1259] ({CH2CO}-Y[Pip]DPHK[Hyp]WKW[NMeNle][NMeNle]DCG-NH2; thioether N-14) is 1 to 9.9 nM; for `CCCC[C@H]1C(=O)N(C)CC(=O)N[C@@H](CC(=O)O)C(=O)N[C@@H](C(C)C)C(=O)N(C)[C@@H](Cc2ccccc2)C(=O)N[C@@H](Cc2ccc(O)cc2)C(=O)N(C)CC(=O)N[C@@H](Cc2c[nH]c3ccccc23)C(=O)N[C@@H](Cc2ccc(O)cc2)C(=O)N[C@@H](CC(C)C)C(=O)N[C@H](C(=O)NCC(N)=O)CSCC(=O)N[C@@H](Cc2ccncc2)C(=O)N(C)[C@@H](Cc2ccccc2)C(=O)N1C` [Example 3242] ({CH2CO}-[4Pal][NMeF][NMeNle][Sar]DV[NMeF]Y[Sar]WYLCG-NH2; thioether N-13) it is 100 to 990 nM; for `CCCC[C@H]1NC(=O)[C@H](Cc2c[nH]c3ccccc23)NC(=O)[C@H](CO)NC(=O)[C@H](Cc2c[nH]c3ccccc23)NC(=O)[C@@H]2C[C@@H](O)CN2C(=O)[C@H](CCCN)NC(=O)[C@H](Cc2cnc[nH]2)NC(=O)[C@@H]2CCCN2C(=O)[C@H](CC(N)=O)NC(=O)[C@H](C)N(C)C(=O)[C@H](Cc2ccc(O)cc2)NC(=O)CSCC(C(=O)NCC(N)=O)NC(=O)[C@H](CCC(=O)O)NC(=O)[C@H](CCCC)N(C)C1=O` (stereo partly drawn) [Example 10129] ({CH2CO}-Y[NMeA]NPH[Orn][Hyp]WSW[dNle][NMeNle]E[ξC]G-NH2; thioether N-14) it is 1000 to 10000 nM. For `CCCC[C@H]1C(=O)N2C[C@H](O)C[C@@H]2C(=O)N[C@@H](CC(=O)O)C(=O)N[C@@H](C(C)C)C(=O)N(C)[C@@H](Cc2ccccc2)C(=O)N[C@@H](CCC(=O)O)C(=O)N2CCOC[C@@H]2C(=O)N[C@@H](Cc2c[nH]c3ccccc23)C(=O)N[C@@H](Cc2ccc(O)cc2)C(=O)N[C@@H](CC(C)C)C(=O)N[C@H](C(=O)NCC(N)=O)CSCC(=O)N[C@@H](Cc2cc(F)c(F)c(F)c2)C(=O)N(C)[C@@H](Cc2ccc(F)cc2)C(=O)N1C` [Example 10594] ({CH2CO}-[Phe(3,4,5-F3)][NMePhe(4-F)][NMeNle][d(cisHyp)]DV[NMeF]E[X1]WYLCG-NH2; thioether N-13), the IC50 lay within 1 to 9.9 nM.

Turning to `CCCC[C@H]1C(=O)N2CCC[C@@H]2C(=O)N[C@@H](CC(=O)O)C(=O)N[C@@H](C(C)C)C(=O)N(C)[C@@H](Cc2ccccc2)C(=O)N[C@@H](CCC(=O)O)C(=O)N2CCCC[C@@H]2C(=O)N[C@@H](Cc2c[nH]c3ccccc23)C(=O)N[C@@H](Cc2ccc(O)cc2)C(=O)N[C@@H](CCCCN)C(=O)N[C@H](C(=O)NCC(N)=O)CSCC(=O)N[C@@H](Cc2cc(F)c(F)c(F)c2)C(=O)N(C)[C@@H](Cc2ccc(F)cc2)C(=O)N1C` [Example 10564] ({CH2CO}-[Phe(3,4,5-F3)][NMePhe(4-F)][NMeNle][dP]DV[NMeF]E[dPip]WYKCG-NH2; thioether N-13), the IC50 is 1 to 9.9 nM. In the case of `CCCC[C@H]1C(=O)N(C)[C@@H](CCCC)C(=O)N[C@@H](C)C(=O)N[C@H](C(=O)NCC(N)=O)CSCC(=O)N[C@@H](Cc2ccc(O)cc2)C(=O)N(C)[C@@H](C)C(=O)N[C@@H](CC(=O)O)C(=O)N2CCC[C@H]2C(=O)N[C@@H](Cc2cnc[nH]2)C(=O)N[C@@H](CCC(N)=O)C(=O)N2C[C@H](O)C[C@H]2C(=O)N[C@@H](Cc2c[nH]c3ccccc23)C(=O)N[C@@H](CCN)C(=O)N[C@@H](Cc2cn(CC(=O)O)c3ccccc23)C(=O)N1C` [Example 6158] ({CH2CO}-Y[NMeA]DPHQ[Hyp]W[Dab][Trp(1-CH2COOH)][NMeNle][NMeNle]ACG-NH2; thioether N-14), the IC50 lay in the range of 1 to 9.9 nM. The same measure for `CCCC[C@H]1C(=O)N[C@@H](Cc2ccc(O)cc2)C(=O)N2CCCC[C@@H]2C(=O)N[C@@H](Cc2c[nH]c3ccccc23)C(=O)N[C@@H](Cc2ccc(O)cc2)C(=O)N[C@@H](CC(C)C)C(=O)N[C@H](C(=O)NCC(N)=O)CSCC(=O)N[C@@H](Cc2ccc(F)cc2)C(=O)N(C)[C@@H](Cc2ccccc2)C(=O)N(C)[C@@H](CCCC)C(=O)N2CCC[C@@H]2C(=O)N[C@@H](CC(=O)O)C(=O)N[C@@H](C(C)C)C(=O)N1C` [Example 9214] ({CH2CO}-[Phe(4-F)][NMeF][NMeNle][dP]DV[NMeNle]Y[dPip]WYLCG-NH2; thioether N-13): 100 to 990 nM; for `CCCC[C@H]1C(=O)N2C[C@@H](O)C[C@@H]2C(=O)N[C@@H](CC(=O)O)C(=O)N[C@@H](C(C)C)C(=O)N(C)[C@@H](Cc2ccccc2)C(=O)N[C@@H](CCC(=O)O)C(=O)N2CCOC[C@@H]2C(=O)N[C@@H](Cc2c[nH]c3ccccc23)C(=O)N[C@@H](Cc2ccc(O)cc2)C(=O)N[C@@H](CCCN)C(=O)N[C@H](C(=O)NCC(N)=O)CSCC(=O)N[C@@H](Cc2ccc(F)c(F)c2)C(=O)N(C)[C@@H](Cc2ccccc2)C(=O)N1C` [Example 9279] ({CH2CO}-[Phe(3,4-F2)][NMeF][NMeNle][dHyp]DV[NMeF]E[X1]WY[Orn]CG-NH2; thioether N-13): 1 to 9.9 nM. As for `CCCC[C@H]1C(=O)N(C)[C@@H](CCCC)C(=O)N[C@@H](CCCNC(=N)N)C(=O)NC(C(=O)NCC(N)=O)CSCC(=O)N[C@@H](Cc2ccc(O)cc2)C(=O)N(C)[C@@H](C)C(=O)N[C@@H](CC(N)=O)C(=O)N2CCC[C@H]2C(=O)N[C@@H](CC(N)=O)C(=O)N[C@@H](CC(C)C)C(=O)N2CCC[C@H]2C(=O)N[C@@H](Cc2c[nH]c3ccccc23)C(=O)N[C@@H](CCO)C(=O)N[C@@H](Cc2csc3ccccc23)C(=O)N1C` (stereo partly drawn) [Example 9129] ({CH2CO}-Y[NMeA]NPNLPW[hSer][Bta][NMeNle][NMeNle]R[ξC]G-NH2; thioether N-14), the IC50 was 1 to 9.9 nM. Regarding `CC(C)C[C@@H]1NC(=O)[C@H](Cc2ccc(O)cc2)NC(=O)[C@H](Cc2c[nH]c3ccccc23)NC(=O)[C@@H](C)N(C)C(=O)[C@H](Cc2ccc(O)cc2)NC(=O)[C@H](Cc2ccccc2)N(C)C(=O)[C@H](C(C)C)NC(=O)[C@H](CCC(=O)O)NC(=O)[C@@H](C)N(C)C(=O)[C@H](C)N(C)C(=O)[C@H](Cc2ccccc2)N(C)C(=O)[C@H](Cc2cc(F)c(F)c(F)c2)NC(=O)CSC[C@@H](C(=O)NCC(N)=O)NC1=O` [Example 9189] ({CH2CO}-[Phe(3,4,5-F3)][NMeF][NMeA][dNMeA]EV[NMeF]Y[dNMeA]WYLCG-NH2; thioether N-13), the IC50 was in the range of 1 to 9.9 nM.

Consider `CCCC[C@H]1C(=O)N2CCC[C@@H]2C(=O)N[C@@H](CC(=O)O)C(=O)N[C@@H](C(C)C)C(=O)N(C)[C@@H](Cc2ccccc2)C(=O)N[C@@H](CC(=O)O)C(=O)N2CCCC[C@@H]2C(=O)N[C@@H](Cc2c[nH]c3ccccc23)C(=O)N[C@@H](Cc2ccc(O)cc2)C(=O)N[C@@H](CCN)C(=O)N[C@H](C(=O)NCC(N)=O)CSCC(=O)N[C@@H](Cc2cc(F)c(F)c(F)c2)C(=O)N(C)[C@@H](Cc2ccc(F)cc2)C(=O)N1C` [Example 10571] ({CH2CO}-[Phe(3,4,5-F3)][NMePhe(4-F)][NMeNle][dP]DV[NMeF]D[dPip]WY[Dab]CG-NH2; thioether N-13), for which the IC50 was 1 to 9.9 nM. Consider `CCCC[C@H]1C(=O)N2CCC[C@@H]2C(=O)N2CCNC[C@H]2C(=O)N[C@@H](C(C)C)C(=O)N(C)[C@@H](Cc2ccccc2)C(=O)N[C@@H](Cc2ccc(O)cc2)C(=O)N2CCCC[C@@H]2C(=O)N[C@@H](Cc2c[nH]c3ccccc23)C(=O)N[C@@H](Cc2ccc(O)cc2)C(=O)N[C@@H](CC(C)C)C(=O)N[C@H](C(=O)NCC(N)=O)CSCC(=O)N[C@@H](Cc2cc(F)c(F)c(F)c2)C(=O)N(C)[C@@H](Cc2ccccc2)C(=O)N1C` [Example 3218] ({CH2CO}-[Phe(3,4,5-F3)][NMeF][NMeNle][dP][Pip(4-aza)]V[NMeF]Y[dPip]WYLCG-NH2; thioether N-13), for which the IC50 lay within 1 to 9.9 nM. For the molecule `CCCC[C@H]1C(=O)N2CCC[C@@H]2C(=O)N[C@@H](CC(=O)O)C(=O)N[C@@H](C(C)C)C(=O)N(C)[C@@H](Cc2ccc(F)cc2)C(=O)N[C@@H](CCC(=O)O)C(=O)N2CCC[C@@H]2C(=O)N[C@@H](Cc2c[nH]c3ccccc23)C(=O)N[C@@H](Cc2ccc(O)cc2)C(=O)N[C@@H](CC(C)C)C(=O)N[C@H](C(=O)NCC(N)=O)CSCC(=O)N[C@@H](Cc2ccc(F)cc2)C(=O)N(C)[C@@H](Cc2ccccc2)C(=O)N1C` [Example 10111] ({CH2CO}-[Phe(4-F)][NMeF][NMeNle][dP]DV[NMePhe(4-F)]E[dP]WYLCG-NH2; thioether N-13), the IC50 is 1 to 9.9 nM.

As to `CCCC[C@H]1C(=O)N(C)[C@H](C)C(=O)N[C@@H](CC(=O)O)C(=O)N[C@@H](C(C)C)C(=O)N(C)[C@@H](Cc2ccccc2)C(=O)N[C@@H](Cc2ccc(O)cc2)C(=O)N(C)[C@H](C)C(=O)N[C@@H](Cc2c[nH]c3ccccc23)C(=O)N[C@@H](Cc2ccc(O)cc2)C(=O)N[C@@H](CC(C)C)C(=O)N[C@H](C(=O)NCC(N)=O)CSCC(=O)N[C@@H](Cc2cc(F)c(F)c(F)c2)C(=O)N(C)[C@@H](Cc2ccccc2)C(=O)N1C` [Example 3224] ({CH2CO}-[Phe(3,4,5-F3)][NMeF][NMeNle][dNMeA]DV[NMeF]Y[dNMeA]WYLCG-NH2; thioether N-13), the IC50 lay in the range of 10 to 99.9 nM.
